In patent publication US5795977A, “Water soluble adenosine kinase inhibitors” (Metabasis Therapeutics, Inc., priority 1996, dated 1998):
Counter-ions that a name gives are not always drawn. Each block holds one compound with its values, some of them ahead of it.

What was measured:
[1] = test system: Rats (carrageenan paw); assay: Anti-inflammatory activity, carrageenan paw swelling; type: in vivo; conditions: rat, 10 mg/kg, swelling after 3 hours; for Carrageenan Paw (% inhibition) po: oral gavage
Procedure: Carrageenan (Type λ) was suspended in sterile PBS at 1% (w/v), autoclaved for 30 minutes, and stored at room temperature. Rats were pretreated with vehicle or AK inhibitor (10 mg/kg) by oral gavage or i.p. administration and the volume of the left hind paw was measured using a water displacement plethysmometer (Stoelting Co., Wood Dale, Ill.). One hour after oral treatment or 30 minutes after i.p. treatment, the rats were briefly anesthetized, and 0.1 ml of the carrageenan solution was injected subcutaneously into the planar surface of the left hind paw. The ensuing paw swelling was measured by plethysmometry after 3 hours. The paw volume in millileters was […]. Data are presented in Table 2 as the percent inhibition of paw swelling in AK inhibitor treated animals, compared to vehicle treated control animals.

[2] = target: partially purified pig heart adenosine kinase or recombinant human adenosine kinase; assay: AK inhibition; type: biochemical; conditions: 0.5 μM [U-14C] adenosine, pH 7.0, 37° C., 20 minutes
Procedure: Adenosine kinase activity was measured essentially as described by Yamada et al. Biochim. Biophys. Acta 660, 36-43 (1988) with a few minor modifications. Assay mixtures contained 50 mM TRIS-maleate buffer, pH 7.0, 0.1% BSA, 1 mM ATP 1 mM MgCl2, 0.5 μM [U-^14 C] adenosine (400-600 mCi/mmol) and varying duplicate concentrations of inhibitor. […] The amount of ^14 C-AMP was quantified by scintillation counting.

SMILES: C[C@H]1O[C@@H](n2cc(-c3ccccc3)c3c(Nc4ccc(C(N)=NO)cc4)ncnc32)[C@H](O)[C@@H]1O [Compound 37, 4-N-(4-amidoximephenyl)amino-5-phenyl-7-(5-deoxy-1-β-D-ribofuranosylpyrrolo[2,3-d]pyrimidine hydrochloride]
Carrageenan Paw (% inhibition) ip [1]: 17.9%
Carrageenan Paw (% inhibition) po [1]: 23.3%
IC50 [2]: 5 nM

SMILES: CC(=O)NS(=O)(=O)c1ccc(Nc2ncnc3c2c(-c2ccccc2)cn3[C@@H]2O[C@H](C)[C@@H](O)[C@H]2O)cc1 [Compound 40, 4-N-[4-(N-acetylaminosulfonyl)phenyl]amino-5-phenyl-7-(5-deoxy-1-β-D-ribofuranosyl)pyrrolo[2,3-d]pyrimidine]
IC50 [2]: 3000 nM

SMILES: C[C@H]1O[C@@H](n2cc(-c3ccccc3)c3c(Nc4ccc(CCN5CCNCC5)cc4)ncnc32)[C@H](O)[C@@H]1O [Compound 4, 4-N-[4-(2-(1-piperazino)ethyl)phenyl]amino-5-phenyl-7-(5-deoxy-β-D-ribofuranosyl)pyrrolo[2,3-d]pyrimidine]
Carrageenan Paw (% inhibition) po [1]: 2.5%

SMILES: NCCc1ccc(Nc2ncnc3c2c(-c2ccccc2)cn3[C@@H]2O[C@@H](CO)[C@@H](O)[C@H]2O)cc1 [Compound 16, 4-N-(4-(2-aminoethyl)phenyl)amino-5-phenyl-7-α-L-lyxofuranosylpyrrolo[2,3-d]pyrimidine]
Carrageenan Paw (% inhibition) ip [1]: 31.6%
Carrageenan Paw (% inhibition) po [1]: 12.4%
IC50 [2]: 1 nM

SMILES: C[C@H]1O[C@@H](n2cc(-c3ccccc3)c3c(Nc4ccc(C(=O)N5CCNCC5)cc4)ncnc32)[C@H](O)[C@@H]1O [Compound 210, 4-N-[4-(4-piperazinocarbonylphenyl)]amino-5-phenyl-7-(5-deoxy-1-β-D-ribofuranosyl)pyrrolo[2,3-d]pyrimidine]
Carrageenan Paw (% inhibition) ip [1]: 23.8%
Carrageenan Paw (% inhibition) po [1]: 0.0%
IC50 [2]: 2 nM

SMILES: C[C@H]1O[C@@H](n2cc(-c3ccccc3)c3c(Nc4ccc(C(=O)NN5CCCCC5)cc4)ncnc32)[C@H](O)[C@@H]1O [Compound 212]
Carrageenan Paw (% inhibition) ip [1]: 1.8%
Carrageenan Paw (% inhibition) po [1]: 0.0%
IC50 [2]: 2 nM

SMILES: C[C@H]1O[C@@H](n2cc(I)c3c(NCc4cccnc4)ncnc32)[C@H](O)[C@@H]1O [Compound 44, 4-N-(3-pyridylmethylamino)-5-iodo-7-(5-deoxy-1-β-D-ribofuranosyl)pyrrolo[2,3-d]pyrimidine]
IC50 [2]: 120 nM

SMILES: C[C@H]1O[C@@H](n2cc(I)c3c(NCc4ccccn4)ncnc32)[C@H](O)[C@@H]1O [Compound 41, 4-N-(2-pyridylmethylamino)-5-iodo-7-(5-deoxy-1-β-D-ribofuranosyl)pyrrolo[2,3-d]pyrimidine]
IC50 [2]: 70 nM

SMILES: C[C@H]1O[C@@H](n2cc(-c3ccccc3)c3c(Nc4ccc(CCO)cc4)ncnc32)[C@H](O)[C@@H]1O [Compound 2, 4-N-(4-(2-Hydroxyethyl)phenyl)amino-5-phenyl-7-(5-deoxy-β-D-ribofuranosyl)pyrrolo[2,3-d]pyrimidine]
Carrageenan Paw (% inhibition) ip [1]: 13.2%
Carrageenan Paw (% inhibition) po [1]: 1.9%
IC50 [2]: 1 nM

SMILES: CCN(CC)CCNC(=O)c1ccc(Nc2ncnc3c2c(-c2ccccc2)cn3[C@@H]2O[C@H](C)[C@@H](O)[C@H]2O)cc1 [Compound 211]
IC50 [2]: 0.5 nM

SMILES: C[C@H]1O[C@@H](n2cc(-c3ccccc3)c3c(Nc4ccc(C(=N)N)cc4)ncnc32)[C@H](O)[C@@H]1O [Compound 39, 4-N -(4-amidinophenyl)amino-5-phenyl-7-(5-deoxy-1-β-ribofuranosyl)pyrrolo[2,3-d]pyrimidine]
IC50 [2]: 1 nM

SMILES: C[C@H]1O[C@@H](n2cc(I)c3c(NCc4nc5ccccc5[nH]4)ncnc32)[C@H](O)[C@@H]1O [Compound 45, 4-N-(2-benzimidazolylmethyl)amino-5-iodo-7-(5-deoxy-1-β-D-ribofuranosyl) pyrrolo[(2,3-d)]pyrimidine]
IC50 [2]: 500 nM

More lines, main results first:

IC50 [2]: 1 nM
SMILES: C[C@H]1O[C@@H](n2cc(-c3ccccc3)c3c(Nc4ccc(CC(=O)N5CCNCC5)cc4)ncnc32)[C@H](O)[C@@H]1O [Compound 189]
Carrageenan Paw (% inhibition) ip [1]: 30.1%
Carrageenan Paw (% inhibition) po [1]: 12.1%

IC50 [2]: 1 nM
SMILES: C[C@H]1O[C@@H](n2cc(-c3ccccc3)c3c(Nc4ccc(CCNC(=N)N)cc4)ncnc32)[C@H](O)[C@@H]1O [Compound 267, 4-N-[4-(2-Guanidinoethyl)phenyl]amino-5-phenyl-7-(5-deoxy-1-β-D-ribofuranosyl)pyrrolo[2,3-d]pyrimidine hydrochloride]
Carrageenan Paw (% inhibition) ip [1]: 52.3%
Carrageenan Paw (% inhibition) po [1]: 15.4%

IC50 [2]: 80 nM
SMILES: C[C@H]1O[C@@H](n2cc(-c3ccccc3)c3c(Nc4ccc(CC(=O)O)cc4)ncnc32)[C@H](O)[C@@H]1O [Compound 186, 4-N-(4-Carboxymethylphenyl)amino-5-phenyl-7-(5-deoxy-1-β-D-ribofuranosyl)pyrrolo[2,3-d]pyrimidine]

IC50 [2]: 80 nM
SMILES: C[C@H]1O[C@@H](n2cc(-c3ccccc3)c3c(Nc4ccc(C(=O)O)cc4)ncnc32)[C@H](O)[C@@H]1O [Compound 209, 4-N-(4carboxyphenyl)amino-5-phenyl-7-(5-deoxy-1-β-D-ribofuranosyl)pyrrolo[2,3-d]pyrimidine]
Carrageenan Paw (% inhibition) ip [1]: 22.0%
Carrageenan Paw (% inhibition) po [1]: 0.0%

IC50 [2]: 20 nM
SMILES: C[C@H]1O[C@@H](n2cc(-c3ccc(/C=C/C(=O)O)cc3)c3c(Nc4ccc(F)cc4)ncnc32)[C@H](O)[C@@H]1O [Compound 202, 4-N-(4-fluorophenyl)amino-5-[4-(2-carboxy-E-ethenyl)phenyl]-7-(5-deoxy-1-β-D-ribofuranosyl)pyrrolo[2,3-d]pyrimidine]
Carrageenan Paw (% inhibition) ip [1]: 3.4%
Carrageenan Paw (% inhibition) po [1]: 3.9%

IC50 [2]: 55 nM
SMILES: C[C@H]1O[C@@H](n2cc(-c3cccnc3)c3c(Nc4ccccc4)ncnc32)[C@H](O)[C@@H]1O [Compound 47, 4-N-Phenylamino-5-(3-pyridino)-7-(5-deoxy-1-β-D-ribofuranosyl) pyrrolo[2,3-d]pyrimidine]
Carrageenan Paw (% inhibition) ip [1]: 0.0%
Carrageenan Paw (% inhibition) po [1]: 9.8%

IC50 [2]: 120 nM
SMILES: C[C@H]1O[C@@H](n2cc(-c3ccc(CN(C)C)cc3)c3c(Nc4ccc(F)cc4)ncnc32)[C@H](O)[C@@H]1O [Compound 198, 4-N-(4-fluorophenyl)amino-5-[4-(dimethylaminomethyl)phenyl]-7-(5-deoxy-β-D-ribofuranosyl)pyrrolo[2,3-d]pyrimidine]

IC50 [2]: 550 nM
SMILES: C[C@H]1O[C@@H](n2cc(-c3ccc(C(=O)N4CCNCC4)cc3)c3c(Nc4ccc(F)cc4)ncnc32)[C@H](O)[C@@H]1O [Compound 199, 4-N-(4-fluorophenyl)amino-5-[4-(N-piperazinocarbonyl)phenyl]-7-(5-deoxy-1-β-D-ribofuranosyl)pyrrolo(2,3-d]pyrimidine hydrochloride salt]

IC50 [2]: 6 nM
SMILES: C[C@H]1O[C@@H](n2cc(-c3ccccc3)c3c(Nc4ccc(NC(=N)N)cc4)ncnc32)[C@H](O)[C@@H]1O [Compound 269, 4-N-(4-Guanidinophenyl)amino-5-phenyl-7-(5-deoxy-1-β-D-ribofuranosyl)pyrrolo[2,3-d]pyrimidine]

IC50 [2]: 0.35 nM
SMILES: C[C@H]1O[C@@H](n2cc(-c3ccccc3)c3c(Nc4ccc(OCC(=O)N5CCNCC5)cc4)ncnc32)[C@H](O)[C@@H]1O [Compound 196, 4-N-[4-(4-piperazinocarbonylmethyloxy)phenyl]amino-5-phenyl-7-(5-deoxy-1-β-D-ribofuranosyl)pyrrolo(2,3-d)pyrimidine]
Carrageenan Paw (% inhibition) ip [1]: 11.8%
Carrageenan Paw (% inhibition) po [1]: 0.0%

IC50 [2]: 220 nM
SMILES: OC[C@@H]1O[C@@H](n2cc(I)c3c(NCc4ccccn4)ncnc32)[C@H](O)[C@@H]1O [Compound 46, 4-N-(2-pyridylmethyl)amino-5-iodo-7-(a-L-lyxofuranosyl)pyrrolo(2,3-d)pyrimidine]

IC50 [2]: 200 nM
SMILES: CCN(CC)CCNC(=O)c1ccc(-c2cn([C@@H]3O[C@H](C)[C@@H](O)[C@H]3O)c3ncnc(Nc4ccc(F)cc4)c23)cc1 [Compound 200, 4-N-(4-fluorophenyl)amino-5-[4-(2-N,N-diethylaminoethyleneaminocarbonyl)phenyl]-7-(5-deoxy-1-β-D-ribofuranosyl)pyrrolo[2,3-d]pyrimidine hydrochloride]

IC50 [2]: 300 nM
SMILES: C[C@H]1O[C@@H](n2cc(-c3cccnc3)c3c(NCc4ccccn4)ncnc32)[C@H](O)[C@@H]1O [Compound 48, 4-N-(2-pyridylmethyl)amino-5-(3-pyridino)-7-(5-deoxy-1-β-D-ribofuranosyl)pyrrolo[2,3-d]pyrimidine]

IC50 [2]: 45 nM
SMILES: C[C@H]1O[C@@H](n2cc(-c3ccc(CCC(=O)O)cc3)c3c(Nc4ccc(F)cc4)ncnc32)[C@H](O)[C@@H]1O [Compound 204, 4-N-(4-fluorophenyl)amino-5-[4-(2-carboxyethyl)phenyl]-7-(5-deoxy-1-β-D-ribofuranosyl)pyrrolo[2,3-d]pyrimidine]

IC50 [2]: 9 nM
SMILES: C[C@H]1O[C@@H](n2cc(-c3ccc(CN4CCNCC4)cc3)c3c(Nc4ccc(F)cc4)ncnc32)[C@H](O)[C@@H]1O [Compound 197, 4-N-(4-fluorophenyl)amino-5-[4-(N-piperazinomethyl)phenyl]-7-(5-deoxy-β-D-ribofuranosyl)pyrrolo[2,3-d]pyrimidine]
